Laboratory results taken from patent publication US11701347B2, “Use of 5-fluoro-4-(4-fluoro-2-methoxyphenyl)-N-{4-[(S-methylsulfonimidoyl)methyl]pyridin-2-yl}pyridin-2-amine for treating diffuse large B-cell lymphoma” (Bayer Aktiengesellschaft, priority 2018, dated 2023).

Columns and labels:
SU-DHL-5 = assay: Cell proliferation assay (CellTiter Glo, 72 h); assay type: cell-based; settings: Homo sapiens, SU-DHL-5, DLBCL GCB subtype
Experimental: (§1) The proliferation of all (DLCBL) cell lines in the presence of different concentrations of Compound A′ or FR compound for 72 h was assessed using CellTiter Glo kits (Promega Corporation, Madison, Wis.). All expressed values were averages of triplicate experiments, and IC50 was calculated using GraphPad Prism 5 (GraphPad Software, San Diego, Calif.) according to the manufacturer's instructions or the MTS software.

TMD8 = assay: Cell proliferation assay (CellTiter Glo, 72 h); assay type: cell-based; settings: Homo sapiens, TMD8, DLBCL ABC subtype
Experimental: as §1

OCI-LY-19 = assay: Cell proliferation assay (CellTiter Glo, 72 h); assay type: cell-based; settings: Homo sapiens, OCI-LY19, OCI-LY-19, DLBCL GCB subtype
Experimental: as §1

HBL1 = assay: Cell proliferation assay (CellTiter Glo, 72 h); assay type: cell-based; settings: HBL1, DLBCL ABC subtype
Experimental: as §1

OCI-LY-3 = assay: Cell proliferation assay (CellTiter Glo, 72 h); assay type: cell-based; settings: Homo sapiens, OCI-Ly3, OCI-LY-3, DLBCL ABC subtype
Experimental: as §1

DB = assay: Cell proliferation assay (CellTiter Glo, 72 h); assay type: cell-based; settings: Homo sapiens, DLBCL GCB subtype
Experimental: as §1

SU-DHL-6 = assay: Cell proliferation assay (CellTiter Glo, 72 h); assay type: cell-based; settings: Homo sapiens, SU-DHL-6, DLBCL GCB subtype
Experimental: as §1

SU-DHL-10 = assay: Cell proliferation assay (CellTiter Glo, 72 h); assay type: cell-based; settings: Homo sapiens, SU-DHL10, SU-DHL-10, DLBCL GCB subtype
Experimental: as §1

HT = assay: Cell proliferation assay (CellTiter Glo, 72 h); assay type: cell-based; settings: Homo sapiens, DLBCL GCB subtype
Experimental: as §1

SU-DHL-4 = assay: Cell proliferation assay (CellTiter Glo, 72 h); assay type: cell-based; settings: Homo sapiens, SU-DHL-4, DLBCL GCB subtype
Experimental: as §1

SU-DHL-8 = assay: Cell proliferation assay (CellTiter Glo, 72 h); assay type: cell-based; settings: Homo sapiens, SU-DHL-8, DLBCL GCB subtype
Experimental: as §1

[1] = tested on: subcutaneous DLBCL SU-DHL-10 xenografts; assay: In vivo efficacy in DLBCL SU-DHL-10 xenograft model; set-up: species or system female SCID mice; settings: 15 mg/kg q7d iv, 16 days, end of experiment
Experimental: (§2) The aim of the present experiments was to assess the in vivo efficacy and tolerability of Compound A′ in monotherapy in the DLBCL SU-DHL-10 tumour model subcutaneously implanted in SCID mice. In vivo efficacy was determined in female SCID mice bearing subcutaneous DLBCL SU-DHL-10 xenografts. Compound A′ was assessed at one dose level in monotherapy. Anti-tumour activity and tolerability of the treated group was assessed using the vehicle control group as a reference. […] At randomisation, the area of growing tumours was initially determined Animals bearing one tumour of an area of 25-35 mm2 were distributed in experimental groups according to the study protocol. The day of randomisation is designated as day 0 of an experiment Animals either received Compound A′ (formulated in 30% PEG400/10% Ethanol/60%water), at a dose of 15 mg/kg q7d intravenously or vehicle control (q7d iv) for a period of 16 days.
(§3) The maximum body weight loss was −9% in Compound A′ group compared to −4% in the vehicle group indicating moderate tolerability of Compound A′ at a dose of 15 mg/kg q7d iv. At the end of the experiment the Treatment to Control ratios (T/C) was calculated based on the mean tumor area in the Compound A′ treatment group and in the vehicle control group.

[2] = tested on: subcutaneous DLBCL OCI-LY-3 xenografts; assay: In vivo efficacy in DLBCL OCI-LY-3 xenograft model; set-up: species or system female SCID mice; settings: 10 mg/kg q7d iv, 14 days, end of experiment
Experimental: (§4) The aim of the present experiments was to assess the in vivo efficacy and tolerability of Compound A′ in monotherapy in the DLBCL OCI-LY-3 tumour model subcutaneously implanted in SCID mice. In vivo efficacy was determined in female SCID mice bearing subcutaneous DLBCL OCI-LY-3 xenografts. Compound A′ was assessed at one dose level in monotherapy. Anti-tumour activity and tolerability of the treated group was assessed using the vehicle control group as a reference.
(§5) At randomisation, the area of growing tumours was initially determined Animals bearing one tumour of an area of 25-35 mm2 were distributed in experimental groups according to the study protocol. The day of randomisation is designated as day 0 of an experiment Animals either received Compound A′ (formulated in 30% PEG400/10% Ethanol/60%water), at a dose of 10 mg/kg q7d intravenously or vehicle control (qd po) for a period of 14 days.
At the end of the experiment Treatment to Control ratios (T/C) were calculated based on the mean tumor area and the mean tumor weight in the Compound A′ treatment group and in the vehicle control group.

[3] = Tolerability in SU-DHL-10 xenograft study; assay type: in vivo, female SCID mice; settings: 15 mg/kg q7d iv, 16 days
Experimental: as §2, §3

[4] = Tolerability in OCI-LY-3 xenograft study; assay type: in vivo; settings: 10 mg/kg q7d iv, 14 days
Experimental: as §4, §5

Row | SMILES | IC50 (SU-DHL-5) | IC50 (TMD8) | IC50 (OCI-LY-19) | IC50 (HBL1) | IC50 (OCI-LY-3) | IC50 (DB) | IC50 (SU-DHL-6) | IC50 (SU-DHL-10) | IC50 (HT) | IC50 (SU-DHL-4) | IC50 (SU-DHL-8) | T/C by area (Treatment to Control ratio, mean tumor area) [1] | T/C by area (Treatment to Control ratio, mean tumor area) [2] | T/C by weight (Treatment to Control ratio, mean tumor weight) [2] | maximum body weight loss [3] | Fatal toxicities [4] | maximum body weight loss [4]
1 | COc1cc(F)ccc1-c1cc(Nc2cc(CS(C)(=N)=O)ccn2)ncc1F (single isomer, unassigned; (+)) [Compound A′, (+)-5-Fluoro-4-(4-fluoro-2-methoxyphenyl)-N-{4-[(S-methylsulfonimidoyl)methyl]pyridin-2-yl}pyridin-2-amine] | 105 nM | 100 nM | 39 nM | 196 nM | 83 nM | 88 nM | 37 nM | 129 nM | 81 nM | 90 nM | 93 nM | 0.02 | 0.29 | 0.24 | −9% | did not occur | −6%
2 | COc1cc(F)ccc1-c1ncnc(Nc2cccc(CS(C)(=N)=O)c2)n1 (centres unmarked) [FR compound, reference compound] | – | – | 480 nM | 540 nM | 340 nM | 570 nM | 360 nM | 600 nM | 710 nM | 170 nM | 610 nM | – | – | – | – | – | –
